Measured values reported in patent US9532994B2, “Agents and methods for enhancing bone formation by oxysterols in combination with bone morphogenic proteins” (THE REGENTS OF THE UNIVERSITY OF CALIFORNIA, priority 2003, dated 2017).

Experiments:
[1] = test system: adipocyte P2 gene (aP2); assay: Northern blotting for adipocyte P2 gene in M2 cells; type: cell-based, mouse; details: 10 μM Tro with 10 μM 20S, 10 days (FIGS. 7C and D)
Description: RNA isolation and Northern blot analysis - Following treatment of cells under appropriate experimental conditions, total RNA was isolated using the RNA isolation kit from Stratagene (La Jolla, Calif., U.S.A.). Total RNA ([…]) was run on a 1% agarose/formaldehyde gel and transferred to Duralon-UV membranes (Strategene, CA, U.S.A.) and cross-linked with UV light. The membranes were hybridized overnight at 60° C. with ^32P-labeled mouse osteocalcin cDNA probe, mouse lipoprotein lipase (LPL), mouse adipocyte protein 2 (aP2) PCR-generated probes, human 28S or 18S rRNA probes obtained from Geneka Biotechnology (Montreal, Quebec, Canada) and Maxim Biotech (San Francisco, CA, U.S.A.), respectively. […] The extent of gene induction was determined by densitometry.
Test 2: (A) M2 cells at confluence were treated in RPMI containing 10% FBS with control vehicle or 10 μM troglitazone (Tro) in the absence or presence of 10 μM 20S or 22S oxysterols. After 10 days, adipocytes were visualized by oil Red O staining and quantified by light microscopy, shown in (B). […] After 10 days, total RNA was isolated and analyzed for lipoprotein lipase (LPL), adipocyte P2 gene (aP2) or 18S rRNA expression by Northern blotting as described (Ref). […]

[2] = test system: M2-10B4 mouse marrow stromal cell line; assay: Matrix mineralization in M2 cells (von Kossa staining, 45Ca incorporation assay); type: cell-based; details: 0.5-10 μM, as many as 14 days, data not shown
Description: Cells: M2-10B4 mouse marrow stromal cell line obtained from American Type Culture Collection (ATCC, Rockville, Md., U.S.A.) was derived from bone marrow stromal cells of a (C57BL/6J×C3H/HeJ) F1 mouse, and support human and murine myelopoiesis in long-term cultures (as per ATCC) and have the ability to differentiate into osteoblastic and adipocytic cells. Unless specified, these cells were cultured in RPMI 1640 containing 10% heat-inactivated FBS, and supplemented with 1 mM sodium pyruvate, 100 U/ml penicillin, and 100 […] (all from Irvine Scientific).
Von Kossa and oil red O staining—Matrix mineralization in cell monolayers was detected by silver nitrate staining as previously described. Oil red O staining for detection of adipocytes was performed as previously described.
^45Ca incorporation assay—Matrix mineralization in cell monolayers was quantified using the ^45Ca incorporation assay as previously described.
M2 cells at confluence were treated in osteogenic medium with control vehicle or 5 μM oxysterols, alone or in combination as indicated. After 14 days, mineralization was identified by a von Kossa staining, which appears black. FIG. 3C is a depiction of von Kossa staining of M2 cells exposed to various conditions.
M2 cells were treated with control vehicle (C) or a combination of 22R and 20S oxysterols at increasing concentrations. After 14 days, matrix mineralization in cultures was quantified using a ^45Ca incorporation assay. […] FIG. 3D is a bar graph depicting the effect of a combination of oxysterols at various doses on calcium incorporation in M2 cells.
Next, a combination of 22R and 20S oxysterols (RS, 2.5 μM each) were added in the presence or absence of SC as indicated. After 3 days, ALP activity was measured as described earlier. […] (B) M2 cells were treated as described in (A) and after 10 days matrix mineralization in cultures was quantified by a ^45Ca incorporation assay as described earlier. Results from a representative of three experiments are shown, reported as the mean±SD of quadruplicate determinations, normalized to protein concentration. (C) M2 cells were pretreated with 20 μM SC for 4 hours, followed by the addition of RS in the presence or absence of SC as described above. After 8 days, total RNA was isolated and analyzed for osteocalcin (Osc) and 18S rRNA expression by Northern blotting as previously described. Data from densitometric analysis of the Northern blot is shown in (D) as the average of duplicate samples, normalized to 18S rRNA. (E) M2 cells at confluence were pretreated for 2 hours with control vehicle (C), or PLA2 inhibitors ACA (25 μM) and MCOCF3 (MC, 20 μM), in osteogenic medium. Next, a combination of 22R and 20S oxysterols (RS, 2.5 μM) was added in the presence or absence of the inhibitors as indicated. After 3 days, ALP activity was measured as previously described. Data from a representative of three experiments are shown, reported as the mean±SD of quadruplicate determinations, normalized to protein concentration (p<0.01 for RS vs. RS+ACA and RS+MC). (F) M2 cells were treated as described in (E). After 10 days, matrix mineralization in cultures was quantified using a ^45Ca incorporation assay as previously described. Results from a representative of three experiments are shown, reported as the mean of quadruplicate determinations±SD, normalized to protein concentration (p<0.01 for RS vs. RS+ACA and RS+MC).
(A) M2 cells at confluence were pretreated for four hours with RPMI containing 1% FBS, followed by treatment with control vehicle or 5 μM 20S oxysterol for 1, 4, or 8 hours. Next total cell extracts were prepared and analyzed for levels of native or phosphorylated ERK (pERK) using specific antibodies as previously described.

SMILES	expression of adipocyte P2 gene (aP2) [1]	induction of mineralization, individual oxysterols [2]
CC(C)CCC[C@](C)(O)[C@H]1CC[C@H]2[C@@H]3CC=C4C[C@@H](O)CC[C@]4(C)[C@H]3CC[C@@]21C [20S, 20(S)-hydroxycholesterol]	inhibition of the expression	unable to induce
CC(C)CC[C@@H](O)[C@@H](C)[C@H]1CC[C@H]2[C@@H]3CC=C4C[C@@H](O)CC[C@]4(C)[C@H]3CC[C@]12C [22R, 22(R)-hydroxycholesterol]	–	unable to induce
CC(C)CC[C@H](O)[C@@H](C)[C@H]1CC[C@H]2[C@@H]3CC=C4C[C@@H](O)CC[C@]4(C)[C@H]3CC[C@]12C [22S, 22(S)-hydroxycholesterol]	–	unable to induce
